Experiment [1] concerns foot tapping in gerbils. Description: Gerbil Foot-Tapping. It counts as in vivo, Mongolian gerbil. As to conditions: Meriones unguiculatus, iv, i.v. The text has this: CNS-penetrant NK-1 receptor antagonists for use in the present invention can be identified by their ability to inhibit foot tapping in gerbils induced by anxiogenic agents (such as pentagastrin) or central infusion of NK-1 receptor agonists such as GR73632, or caused by aversive stimulation such as foot shock or single housing, based on the method of Rupniak & Williams, Eur. J. Pharmacol., 1994, 265, 179. […] Alternatively, test compounds may be administered orally or by subcutaneous or intraperitoneal routes. A skin incision is then made in the midline of the scalp to expose the skull. An anxiogenic agent (e.g. pentagastrin) or a selective NK-1 receptor agonist (e.g. GR73632 ([…] ]-substance P-(7-11)) is infused directly into the cerebral ventricles (e.g. 3 pmol in 5 μl i.c.v., depending on test substance) by vertical insertion of a cuffed 27 gauge needle to a depth of 4.5 mm below bregma. The scalp incision is closed and the animal allowed to recover from anaesthesia in a clear perspex observation box (approximately 25 cm×20 cm×20 cm). The duration and/or intensity of hind foot tapping is then recorded continuously for approximately 5 minutes. Alternatively, the ability of test compounds to inhibit foot tapping evoked by aversive stimulation, such as foot shock or single housing, may be studied using a similar method of quantification.

Experiment [2] deals with cisplatin-induced emesis in ferrets. Description: Ferret Emesis (cisplatin-induced). It counts as in vivo. The settings on record: Mustela putorius, po, read-out: ferret emesis ID90. Here is the method:
Ten minutes later they are fed with approximately 100 g of tinned cat food. At 60 minutes following oral dosing, cisplatin (10 mg/kg) is given i.v. via a jugular vein catheter inserted under a brief period of halothane anaesthesia. The catheter is then removed, the jugular vein ligated and the skin incision closed. The ferrets recover rapidly from the anaesthetic and are mobile within 10-20 minutes. The animals are observed continuously during recovery from the anaesthetic and for 4 hours following the cisplatin injection, after which time the animals are killed humanely. The numbers of retches and vomits occurring during the 4 hours after cisplatin administration are recorded by trained observers.

Experiment [3] has as its system separation-induced vocalisations in guinea-pig pups. Description: Separation-Induced Vocalisation in guinea-pig pups. It counts as in vivo. The settings on record: for ED50: Cavia porcellus, read-out: guinea-pig vocalisation ID50; for attenuation of separation-induced vocalisations compared with baseline: 30 minutes previously. The text has this: Male and female guinea-pigs pups are housed in family groups with their mothers and littermates throughout the study. Experiments are commenced […] when the pups are at least 2 weeks old. Before entering an experiment, the pups may be screened to ensure that a vigorous vocalisation response is reproducibly elicited following maternal separation. The pups are placed individually in an observation cage (approximately 55 cm×39 cm×19 cm) in a room physically isolated from the home cage for approximately 15 minutes and the duration and/or number of vocalisation during this baseline period is recorded. […] On test days each pup receives an oral dose or an s.c. or i.p. injection of test compound or vehicle and is then immediately returned to the home cage with its mother and siblings for at least 30 to 60 minutes (or for up to 4 hours following an oral dose, dependent upon the oral pharmacokinetics of the test compound) before social isolation for 15 minutes as described above. The duration and/or number of vocalisation on drug treatment days may be expressed as a percentage of the pre-treatment baseline value for each animal or compared with values obtained in vehicle-treated animals. The same subjects may be retested once weekly for up to 6 weeks. Between 6 and 8 animals receive each test compound at each dose tested.
(v) Determine activity of compounds in assays sensitive to conventional serotonergic drugs (inhibition of pharmacologically evoked foot tapping in gerbils and/or inhibition of distress vocalisations in guinea-pig pups (Assay 4)).

Setting [4] is: 5 min, read-out: gerbil foot-tapping (5 mins.) ID50.
Where [5] appears, read: 24 hrs., read-out: gerbil foot-tapping (24 hrs.) ID50.

Each structure is given as a SMILES string. Where two headings read alike, the source gives them in different places. Where only a bound is given, the exact number is not on record here.

This note sets out measurements from patent publication US6162805A, “Use of an NK-1 receptor antagonist and an SSRI for treating obesity” (Merck Sharp & Dohme Limited, priority 1997, dated 2000).

With `C[C@@H](O[C@H]1OCCN(Cc2n[nH]c(=O)[nH]2)[C@H]1c1ccc(F)cc1)c1cc(C(F)(F)F)cc(C(F)(F)F)c1` [2-(R)-(1-(R)-(3,5-bis(trifluoromethyl)phenyl)-ethoxy)-3-(S)-(4-fluorophenyl)-4-(3-(5-oxo-1H,4H-1,2,4-triazolo)methyl)-morpholine], the ED50 in experiment [1] (setting [4]) was found to be 0.36 mg/kg; in experiment [1] (setting [5]), 0.33 mg/kg; in experiment [3] (po, 4 hrs. pretreatment), 0.73 mg/kg. Further, the ED90 in experiment [2] is < 3 mg/kg.

Consider `C[C@@H](O[C@H]1OCCN(Cc2nn[nH]c2CN(C)C)[C@H]1c1ccccc1)c1cc(C(F)(F)F)cc(C(F)(F)F)c1` [Test Compound A, 2-(R)-(1-(R)-(3,5-bis(trifluoromethyl)phenyl)ethoxy)-4-(5-(dimethylamino)methyl-1,2,3-triazol-4-yl)methyl-3-(S)-phenylmorpholine], for which the ED50 in experiment [1] (setting [4]) turned out to be 0.12 mg/kg; in experiment [1] (setting [5]), 0.17 mg/kg; in experiment [3] (sc), 0.5 mg/kg. The “attenuation of separation-induced vocalisations compared with baseline” value in experiment [3] (0.25 mg/kg s.c. alone) is “approximately 25%”.

Turning to `C[C@@H](O[C@@H]1OCCN(Cc2nn[nH]c2CN(C)C)[C@@H]1c1ccccc1)c1cc(C(F)(F)F)cc(C(F)(F)F)c1` [Test Compound B, 2-(S)-(1-(R)-(3,5-bis(trifluoromethyl)phenyl)ethoxy)-4-(5-(dimethylamino)methyl-1,2,3-triazol-4-yl)methyl-3-(R)-phenylmorpholine, reference compound], the “attenuation of separation-induced vocalisations, administered alone” value in experiment [3] (0.25 mg/kg s.c. alone (FIG. 1)) is “failure of the less active enantiomer, Test Compound B (0.25 mg/kg s.c.) to attenuate separation-induced vocalisations when administered alone”.

Consider `CNCCC(Oc1ccc(C(F)(F)F)cc1)c1ccccc1` (stereo not shown) [fluoxetine, reference compound], for which the “attenuation of separation-induced vocalisations compared with baseline” value in experiment [3] (2 mg/kg i.p. alone) was “approximately 25%”.
